Results published in patent US4588822A, “Physiologically active substances SS 12538, their preparation and a novel microorganism producing same” (SS Pharmaceutical Co., Ltd., priority 1982, dated 1986).
In brackets after ≈: the same amount, converted by molar mass. Where two headings read alike, the source gives them in different places.

Experiments:
mongrel dogs = assay: Vasodilating activity in anesthetized mongrel dogs (coronary blood flow, blood pressure, heart rate after dosing into the vein); type: in vivo, dog (mongrel); conditions: for titer relative to dipyridamol: compared with currently employed dipyridamol; for Blood Pressure Duration / Blood Pressure Reduction / Coronary Blood Flow Duration / Coronary Blood Flow Increase / Heart Rate Reduction: i.v., dog
Experimental: 4 male mongrel dogs, weighing 15-25 Kg, were provided as laboratory animals and were anesthesized with sodium pentobarbital (30 mg/kg i.v.). Thereafter, the left circumflex coronary artery was exposed under artificial respiration and a probe of an electromagnetic flow meter was attached. A polyethylene cannula was inserted into the left femoral artery.
Test compounds were dissolved in a small amount of dimethyl sulfoxide and diluted with a sterilized physiological saline for injection, followed by dosing it into the vein.
Coronary blood was measured by means of the electromagnetic flow meter and the blood pressure was determined from the polyethylene cannule through a pressure transducer. Also, heart rate was measured by an instantaneous pulse meter from RR intervals of an electrocardiogram. Each parameter was recorded on a polygraph. Changes of these parameters prior to and after administration of each compound were observed.
In accordance with the procedure as used with SS 12538A, the vasodilating activity of SS 12538B was determined.
In the same manner as in the case of SS 12538A, the vasodilating activity of SS 12538C was determined with the results shown in Table 5.

[1] = system: Bacillus subtilis ATCC 6633; assay: Antibacterial activity (MIC), Bacillus subtilis ATCC 6633; type: cell-based
Description: (§1) Minimum inhibitory concentration (MIC) of the physiologically active substance SS 12538A against various microorganisms are shown in FIG. 2.
(§2) Minimum inhibitory concentration (MIC) of the physiologically active substance SS 12538B against various microorganisms are shown in Table 4 below.
(§3) Minimum inhibitory concentration (MIC) of the physiologically active substance SS 12538C against various microorganisms are shown in Table 6 below.

Bacillus cereus IID 871 = assay: Antibacterial activity (MIC), Bacillus cereus IID 871; type: cell-based
Description: as §1, §2, §3

[2] = system: Micrococcus lysodeikticus IFO 3333; assay: Antibacterial activity (MIC), Micrococcus lysodeikticus IFO 3333; type: cell-based; conditions: Micrococcus luteus
Description: as §1, §2, §3

[3] = system: Staphylococcus aureus ATCC 6538P; assay: Antibacterial activity (MIC), Staphylococcus aureus ATCC 6538P; type: cell-based; conditions: ATCC6538P, read-out: Minimum Inhibitory Concentration MIC
Description: as §1, §2, §3

[4] = system: Staphylococcus epidermidis ATCC 12228; assay: Antibacterial activity (MIC), Staphylococcus epidermidis ATCC 12228; type: cell-based
Description: as §1, §2, §3

Escherichia coli 0-1 = assay: Antibacterial activity (MIC), Escherichia coli 0-1; type: cell-based
Description: as §1, §2, §3

[5] = system: Klebsiella pneumoniae ATCC 10031; assay: Antibacterial activity (MIC), Klebsiella pneumoniae ATCC 10031; type: cell-based
Description: as §1, §2, §3

[6] = system: Pseudomonas aeruginosa IFO 13736; assay: Antibacterial activity (MIC), Pseudomonas aeruginosa IFO 13736; type: cell-based
Description: as §1, §2, §3

[7] = system: Candida albicans ATCC 10231; assay: Antifungal activity (MIC), Candida albicans ATCC 10231; type: cell-based
Description: as §1, §2, §3

[8] = system: Saccharomyces cerevisiae ATCC 9763; assay: Antifungal activity (MIC), Saccharomyces cerevisiae ATCC 9763; type: cell-based
Description: as §1, §2, §3

[9] = system: Aspergillus niger ATCC 9642; assay: Antifungal activity (MIC), Aspergillus niger ATCC 9642; type: cell-based
Description: as §1, §2, §3

[10] = system: Trichophyton mentagrophytes QM 248; assay: Antifungal activity (MIC), Trichophyton mentagrophytes QM 248; type: cell-based
Description: as §1, §2, §3

[11] = system: Microsporum gypseum IFO 8231; assay: Antifungal activity (MIC), Microsporum gypseum IFO 8231; type: cell-based; conditions: Nannizzia gypsea
Description: as §1, §2, §3

Solubilities in solvents = type: physicochemical; conditions: for Solubility in organic solvents: chloroform, ethyl acetate, acetone, ethyl ether, ethanol, methanol, pyridine, benzene and dimethyl sulfoxide
[12] = ATCC6633, Bacillus subtilis ATCC 6633, read-out: Minimum Inhibitory Concentration MIC
[13] = IID871, Bacillus cereus IID 871, read-out: Minimum Inhibitory Concentration MIC
[14] = IFO3333, Micrococcus lysodeikticus IFO 3333, read-out: Minimum Inhibitory Concentration MIC
[15] = Staphylococcus aureus ATCC 6538P
[16] = ATCC12228, Staphylococcus epidermidis ATCC 12228, read-out: Minimum Inhibitory Concentration MIC
[17] = 01, Escherichia coli 0-1, read-out: Minimum Inhibitory Concentration MIC
[18] = ATCC10031, Klebsiella pneumoniae ATCC 10031, read-out: Minimum Inhibitory Concentration MIC
[19] = IFO13736, Pseudomonas aeruginosa IFO 13736, read-out: Minimum Inhibitory Concentration MIC
[20] = ATCC10231, Candida albicans ATCC 10231, read-out: Minimum Inhibitory Concentration MIC
[21] = ATCC9763, Saccharomyces cerevisiae ATCC 9763, read-out: Minimum Inhibitory Concentration MIC
[22] = ATCC9642, Aspergillus niger ATCC 9642, read-out: Minimum Inhibitory Concentration MIC
[23] = QM248, Trichophyton mentagrophytes QM 248, read-out: Minimum Inhibitory Concentration MIC
[24] = IFO8231, Microsporum gypseum IFO 8231, read-out: Minimum Inhibitory Concentration MIC

Row | SMILES | titer relative to dipyridamol (mongrel dogs) | Blood Pressure Duration (mongrel dogs; dose 3 μg/kg) [min] | Blood Pressure Reduction (mongrel dogs; dose 3 μg/kg) [%] | Coronary Blood Flow Duration (mongrel dogs; dose 3 μg/kg) [min] | Coronary Blood Flow Increase (mongrel dogs; dose 3 μg/kg) [%] | Heart Rate Reduction (mongrel dogs; dose 3 μg/kg) [%] | Blood Pressure Duration (mongrel dogs; dose 10 μg/kg) [min] | Blood Pressure Reduction (mongrel dogs; dose 10 μg/kg) [%] | Coronary Blood Flow Duration (mongrel dogs; dose 10 μg/kg) [min] | Coronary Blood Flow Increase (mongrel dogs; dose 10 μg/kg) [%] | Heart Rate Reduction (mongrel dogs; dose 10 μg/kg) [%] | Blood Pressure Duration (mongrel dogs; dose 30 μg/kg) [min] | Blood Pressure Reduction (mongrel dogs; dose 30 μg/kg) [%] | Coronary Blood Flow Duration (mongrel dogs; dose 30 μg/kg) [min] | Coronary Blood Flow Increase (mongrel dogs; dose 30 μg/kg) [%] | Heart Rate Reduction (mongrel dogs; dose 30 μg/kg) [%] | MIC [1, 12] [µg/mL] | MIC (Bacillus cereus IID 871; [13]) [µg/mL] | Solubility in organic solvents (Solubilities in solvents) | Solubility in water (Solubilities in solvents) | other results
1 | CC=C(C)C(O)C(C)C=C(C)C=CCC(C)=CCc1oc(OC)c(C)c(=O)c1C (stereo not drawn) [SS 12538A] | about 30 times | 7 | 4.9 | 10 | 17.1 | 2.3 | 10 | 12.6 | 20 | 168.6 | 2.9 | 30 | 28.7 | 40 | 441.3 | 1.8 | > 100 | 12.5 (≈ 31.2 µM) | Soluble | sparingly soluble | MIC [2, 14]: 25 µg/mL (≈ 62.4 µM); MIC [3, 15]: > 100 µg/mL; MIC [4, 16]: < 6.25 µg/mL; MIC (Escherichia coli 0-1; [17]): > 100 µg/mL; MIC [5, 18]: > 100 µg/mL; MIC [6, 19]: > 100 µg/mL; MIC [7, 20]: > 100 µg/mL; MIC [8, 21]: > 100 µg/mL; MIC [9, 22]: > 100 µg/mL; MIC [10, 23]: > 100 µg/mL; MIC [11, 24]: < 6.25 µg/mL
2 | CC=C(C)C(O)C(C)C=C(C)C=CCC(C)=CCc1oc(OC)c(CC)c(=O)c1C (stereo not drawn) [SS 12538C] | about 3 times | – | – | – | – | – | 0 | 0 | 5 | 30.0 | 0 | 10 | 2.9 | 10 | 60.0 | 0 | – | – | Soluble | sparingly soluble | Blood Pressure Duration (mongrel dogs; dose 100 μg/kg): 15 min; Blood Pressure Reduction (mongrel dogs; dose 100 μg/kg): 8.5%; Coronary Blood Flow Duration (mongrel dogs; dose 100 μg/kg): 15 min; Coronary Blood Flow Increase (mongrel dogs; dose 100 μg/kg): 130.0%; Heart Rate Reduction (mongrel dogs; dose 100 μg/kg): 10.1%; MIC ([1]; Bacillus subtilis, ATCC6633, read-out: Minimum Inhibitory Concentration MIC): > 100 µg/mL; MIC (Bacillus cereus IID 871; Bacillus cereus, IID871, read-out: Minimum Inhibitory Concentration MIC): 25 µg/mL (≈ 60.3 µM); MIC ([2]; IFO3333, read-out: Minimum Inhibitory Concentration MIC): 12.5 µg/mL (≈ 30.2 µM); MIC ([3]; Staphylococcus aureus): 100 µg/mL (≈ 241 µM); MIC ([4]; Staphylococcus epidermidis, ATCC12228, read-out: Minimum Inhibitory Concentration MIC): 25 µg/mL (≈ 60.3 µM); MIC (Escherichia coli 0-1; Escherichia coli, 01, read-out: Minimum Inhibitory Concentration MIC): > 100 µg/mL; MIC ([5]; Klebsiella pneumoniae, ATCC10031, read-out: Minimum Inhibitory Concentration MIC): > 100 µg/mL; MIC ([6]; Pseudomonas aeruginosa, IFO13736, read-out: Minimum Inhibitory Concentration MIC): > 100 µg/mL; MIC ([7]; Candida albicans, ATCC10231, read-out: Minimum Inhibitory Concentration MIC): > 100 µg/mL; MIC ([8]; Saccharomyces cerevisiae, ATCC9763, read-out: Minimum Inhibitory Concentration MIC): > 100 µg/mL; MIC ([9]; Aspergillus niger, ATCC9642, read-out: Minimum Inhibitory Concentration MIC): > 100 µg/mL; MIC ([10]; Trichophyton mentagrophytes, QM248, read-out: Minimum Inhibitory Concentration MIC): 50 µg/mL (≈ 121 µM); MIC ([11]; IFO8231, read-out: Minimum Inhibitory Concentration MIC): > 100 µg/mL
3 | CC=C(C)C(O)C(C)C=C(C)C=CCC(C)=CCc1oc(OC)cc(=O)c1C (stereo not drawn) [SS 12538B] | about 30 times | 6 | 7.5 | 10 | 103.3 | 2.0 | 20 | 27.7 | 15 | 143.8 | 13.0 | – | – | – | – | – | 50 (≈ 129 µM) | 50 (≈ 129 µM) | Soluble | sparingly soluble | MIC [2, 14]: 25 µg/mL (≈ 64.7 µM); MIC [3, 15]: 25 µg/mL (≈ 64.7 µM); MIC [4, 16]: 25 µg/mL (≈ 64.7 µM); MIC (Escherichia coli 0-1; [17]): > 100 µg/mL; MIC [5, 18]: > 100 µg/mL; MIC [6, 19]: > 100 µg/mL; MIC [7, 20]: > 100 µg/mL; MIC [8, 21]: > 100 µg/mL; MIC [9, 22]: > 100 µg/mL; MIC [10, 23]: 25 µg/mL (≈ 64.7 µM); MIC [11, 24]: 100 µg/mL (≈ 259 µM)
4 | OCCN(CCO)c1nc(N2CCCCC2)c2nc(N(CCO)CCO)nc(N3CCCCC3)c2n1 [Dipyridamol, dipyridamol, reference compound] | – | – | – | – | – | – | – | – | – | – | – | – | – | – | – | – | – | – | – | – | Blood Pressure Duration (mongrel dogs; dose 300 μg/kg): 16 min; Blood Pressure Reduction (mongrel dogs; dose 300 μg/kg): 13.2%; Coronary Blood Flow Duration (mongrel dogs; dose 300 μg/kg): 20 min; Coronary Blood Flow Increase (mongrel dogs; dose 300 μg/kg): 135.7%; Heart Rate Reduction (mongrel dogs; dose 300 μg/kg): 0%
